Data: patent publication US9173841B2, “Polymer nanoparticle injection formulation composition containing rapamycin with improved water solubility, preparation method thereof, and anticancer composition for combined use with radiotherapy” (SAMYANG BIOPHARMACEUTICALS CORPORATION, priority 2009, dated 2015)

Columns and labels:
[1] = Experiment 4: in vivo pharmacokinetic behavior, rapamycin level in blood; set-up: species or system male Sprague-Dawley rats; conditions: rats, intravenous administration
Procedure: The in vivo pharmacokinetic behavior of the rapamycin-entrapping nanoparticle composition of Example 1 was evaluated. For animal experiment, male Sprague-Dawley rats weighing 210 to 250 g were used, and 0.3 ml of whole blood was taken from caudal vein every 5, 15 and 30 minutes, and 1, 2, 4, 8 and 24 hours after intravenous and subcutaneous injection of the dose of 5 mg/kg, on the basis of rapamycin. The collected whole blood was treated with the Protein Precipitation (PPT, Progress in Pharmaceutical and Biomedical Analysis, Volume 5, 2003, Pages 199-254) and then centrifuged to obtain 0.15 ml of clear supernatant which was analyzed to check the rapamycin concentration in blood by LC/MS/MS method.
The in vivo pharmacokinetic behavior of the rapamycin-entrapping nanoparticle composition of Example 2 was evaluated by means of the same method as in Experiment 1. However, the composition was administered via oral, intravenous or subcutaneous route in the dose of 10 mg/kg on the basis of rapamycin, and 0.3 ml of whole blood was taken from caudal vein every 15 and 30 minutes, and 1, 2, 4, 8, 24 and 48 hours after administration.

[2] = cited from earlier work
[3] = male, Sprague-Dawley, rat, whole blood, 10 mg/kg

AUC(0-t) ([1]; male, Sprague-Dawley, rat, whole blood, 10 mg/kg on the basis of rapamycin): 5370 ng·h/mL | AUC(0-inf) [1, 3]: 5600 ng·h/mL | Cmax [1, 3]: 2890 ng/mL | Tmax [1, 3]: 0.25 h | half-life [1, 3]: 10.5 h | F ([1]; 10 mg/kg, free sirolimus intravenous = 100): 100%
SMILES: CO[C@H]1C[C@@H]2CC[C@@H](C)[C@@](O)(O2)C(=O)C(=O)N2CCCC[C@H]2C(=O)O[C@H]([C@H](C)C[C@@H]2CC[C@@H](O)[C@H](OC)C2)CC(=O)[C@H](C)/C=C(\C)[C@@H](O)[C@@H](OC)C(=O)[C@H](C)C[C@H](C)/C=C/C=C/C=C/1C [rapamycin, Rapamycin]
solubility in water [2]: 1 to 2 µg/mL
